Experimental data reported in PubChem BioAssay AID1259407 (Chemical Carcinogenesis Research Information System (CCRIS), 2018).
The source made the active and inactive calls. How the calls were made is not given here.

Tested on: CCRIS mutagenicity, Ames/micronucleus/aberration tests
Assay: CCRIS mutagenicity studies
[1] = Test System: AMES SALMONELLA TYPHIMURIUM, Strain/Indicator: TA100, Metabolic Activation: NONE, Method: PREINCUBATION
[2] = Test System: AMES SALMONELLA TYPHIMURIUM, Strain/Indicator: TA98, Metabolic Activation: NONE, Method: STANDARD PLATE
[3] = Test System: AMES SALMONELLA TYPHIMURIUM, Strain/Indicator: TA100, Metabolic Activation: NONE, Method: STANDARD PLATE

For `C/C=C(\Cl)C1=CC(=O)[C@]23C[C@H]2C(C)(C)O[C@]3(O)C1=O`, the mutagenic call (Test System: AMES SALMONELLA TYPHIMURIUM, Strain/Indicator: TA97, Metabolic Activation: NONE) was “inactive; negative”, the mutagenic call (Test System: AMES SALMONELLA TYPHIMURIUM, Strain/Indicator: TA98, Metabolic Activation: NONE) was “inactive; negative” and the mutagenic call (Test System: AMES SALMONELLA TYPHIMURIUM, Strain/Indicator: TA100, Metabolic Activation: NONE) was “inactive; negative”. The mutagenic call (Test System: AMES SALMONELLA TYPHIMURIUM, Strain/Indicator: TA102, Metabolic Activation: NONE) was “active; positive”.

For `COc1cc(Cl)c(OC)cc1Cl`, the mutagenic call (Test System: AMES SALMONELLA TYPHIMURIUM, Strain/Indicator: TA98, Metabolic Activation: HAMSTER, LIVER, S-9, AROCLOR 1254 (5 OR 10%), Method: PREINCUBATION) was “inactive; negative”, the mutagenic call (Test System: AMES SALMONELLA TYPHIMURIUM, Strain/Indicator: TA98, Metabolic Activation: HAMSTER, LIVER, S-9, AROCLOR 1254 (30%), Method: PREINCUBATION) was “inactive; negative” and the mutagenic call (Test System: AMES SALMONELLA TYPHIMURIUM, Strain/Indicator: TA98, Metabolic Activation: NONE, Method: PREINCUBATION) was “inactive; negative”. The mutagenic call (Test System: AMES SALMONELLA TYPHIMURIUM, Strain/Indicator: TA98, Metabolic Activation: RAT, LIVER, S-9, AROCLOR 1254 (30%), Method: PREINCUBATION) was “inactive; negative”, the mutagenic call (Test System: AMES SALMONELLA TYPHIMURIUM, Strain/Indicator: TA100, Metabolic Activation: HAMSTER, LIVER, S-9, AROCLOR 1254 (5 OR 10%), Method: PREINCUBATION) was “inactive; negative” and the mutagenic call (Test System: AMES SALMONELLA TYPHIMURIUM, Strain/Indicator: TA100, Metabolic Activation: HAMSTER, LIVER, S-9, AROCLOR 1254 (30%), Method: PREINCUBATION) was “active; positive”. The mutagenic call [1] was “inactive; negative” and the mutagenic call (Test System: AMES SALMONELLA TYPHIMURIUM, Strain/Indicator: TA100, Metabolic Activation: RAT, LIVER, S-9, AROCLOR 1254 (30%), Method: PREINCUBATION) was “inactive; negative”.

With `CC(=O)OCC12OOC1(C)c1ccccc1O2` (configuration not stated) the mutagenic call [1] was “active; positive”.

For `O=C1c2c(O)ccc(O)c2C(=O)C2C(O)=CC=C(O)C12` (configuration not stated), the mutagenic call [2] was “inactive; negative”, the mutagenic call (Test System: AMES SALMONELLA TYPHIMURIUM, Strain/Indicator: TA98, Metabolic Activation: RAT, LIVER, S-9, AROCLOR 1254, Method: STANDARD PLATE) was “inactive; negative” and the mutagenic call [3] was “inactive; negative”. The mutagenic call (Test System: AMES SALMONELLA TYPHIMURIUM, Strain/Indicator: TA100, Metabolic Activation: RAT, LIVER, S-9, AROCLOR 1254, Method: STANDARD PLATE) was “inactive; negative”, the mutagenic call (Test System: AMES SALMONELLA TYPHIMURIUM, Strain/Indicator: TA1535, Metabolic Activation: NONE, Method: STANDARD PLATE) was “inactive; negative” and the mutagenic call (Test System: AMES SALMONELLA TYPHIMURIUM, Strain/Indicator: TA1535, Metabolic Activation: RAT, LIVER, S-9, AROCLOR 1254, Method: STANDARD PLATE) was “inactive; negative”. The mutagenic call (Test System: AMES SALMONELLA TYPHIMURIUM, Strain/Indicator: TA1537, Metabolic Activation: NONE, Method: STANDARD PLATE) was “active; positive” and the mutagenic call (Test System: AMES SALMONELLA TYPHIMURIUM, Strain/Indicator: TA1538, Metabolic Activation: RAT, LIVER, S-9, AROCLOR 1254, Method: STANDARD PLATE) was “inactive; negative”.

For `OC1=c2c(O)cc3cccc4ccc(c2c43)C23CCCCC12O3` (configuration not stated), the mutagenic call (Test System: CHINESE HAMSTER V-79, Strain/Indicator: V-79/8-AZAGUANINE, Metabolic Activation: NONE, Method: STANDARD PLATE) was “active; positive”.

For `CC(C)OS(C)(=O)=O`, the mutagenic call (End Point: IN VITRO MICRONUCLEUS, Test System: MOUSE LYMPHOMA L5178Y CELLS, Metabolic Activation: NONE) was “active; positive”, the mutagenic call (End Point: IN VITRO MICRONUCLEUS, Test System: MOUSE LYMPHOMA L5178Y CELLS, Metabolic Activation: RAT, LIVER, S-9) was “active; positive” and the mutagenic call [2] was “active; positive”. For the same compound, the mutagenic call (Test System: AMES SALMONELLA TYPHIMURIUM, Strain/Indicator: TA98, Metabolic Activation: RAT, LIVER, S-9, Method: STANDARD PLATE) was “inactive; negative”, the mutagenic call [1] was “active; positive” and the mutagenic call [3] was “active; positive”. The mutagenic call (Test System: AMES SALMONELLA TYPHIMURIUM, Strain/Indicator: TA100, Metabolic Activation: RAT, LIVER, S-9, Method: STANDARD PLATE) was “active; positive”, the mutagenic call (Test System: AMES SALMONELLA TYPHIMURIUM, Strain/Indicator: TA1535, Metabolic Activation: NONE, Method: PREINCUBATION) was “active; positive” and the mutagenic call (Test System: CHINESE HAMSTER V-79, Strain/Indicator: V-79/6-THIOGUANINE, Metabolic Activation: NONE, Method: FLASK ASSAY) was “active; positive”. The mutagenic call (Test System: CHO/HGPRT, Strain/Indicator: CHO-K1-BH4, Metabolic Activation: NONE, Method: STANDARD PLATE) was “active; positive”.
